The NIST ThermoML archive (doi:10.1021/je900137r)
± gives the expanded uncertainty stated by the source.

Assay: molar heat capacity at constant volume
Details: Liquid, Vacuum adiabatic calorimetry

Structure (SMILES): CCC [propane]
- molar heat capacity at constant volume (270.37 K, 19134 kPa): 70.51 ± 1 J/K/mol
- molar heat capacity at constant volume (271.33 K, 19881 kPa): 70.43 ± 1 J/K/mol
- molar heat capacity at constant volume (272.95 K, 21136 kPa): 70.81 ± 1 J/K/mol
- molar heat capacity at constant volume (273.9 K, 21877 kPa): 70.9 ± 1 J/K/mol
- molar heat capacity at constant volume (275.54 K, 23127 kPa): 70.92 ± 1 J/K/mol
- molar heat capacity at constant volume (276.18 K, 3327 kPa): 70.24 ± 1 J/K/mol
- molar heat capacity at constant volume (276.48 K, 23865 kPa): 71.62 ± 1 J/K/mol
- molar heat capacity at constant volume (276.56 K, 3559 kPa): 70.86 ± 1 J/K/mol
- molar heat capacity at constant volume (278.12 K, 25101 kPa): 71.49 ± 1 J/K/mol
- molar heat capacity at constant volume (278.85 K, 5025 kPa): 70.73 ± 1 J/K/mol
- molar heat capacity at constant volume (279.04 K, 25835 kPa): 72.09 ± 1 J/K/mol
- molar heat capacity at constant volume (279.23 K, 5297 kPa): 71.29 ± 1 J/K/mol
- molar heat capacity at constant volume (280.7 K, 27065 kPa): 72.08 ± 1 J/K/mol
- molar heat capacity at constant volume (281.51 K, 6761 kPa): 71.44 ± 1 J/K/mol
- molar heat capacity at constant volume (281.61 K, 27786 kPa): 72.29 ± 1 J/K/mol
- molar heat capacity at constant volume (281.9 K, 7032 kPa): 70.95 ± 1 J/K/mol
- molar heat capacity at constant volume (283.29 K, 29020 kPa): 72.18 ± 1 J/K/mol
- molar heat capacity at constant volume (284.18 K, 8508 kPa): 71.57 ± 1 J/K/mol
- molar heat capacity at constant volume (284.19 K, 29713 kPa): 72.65 ± 1 J/K/mol
- molar heat capacity at constant volume (284.58 K, 8760 kPa): 71.75 ± 1 J/K/mol
- molar heat capacity at constant volume (285.87 K, 30962 kPa): 72.47 ± 1 J/K/mol
- molar heat capacity at constant volume (286.77 K, 31632 kPa): 72.64 ± 1 J/K/mol
- molar heat capacity at constant volume (286.85 K, 10247 kPa): 71.76 ± 1 J/K/mol
- molar heat capacity at constant volume (287.26 K, 10490 kPa): 72.25 ± 1 J/K/mol
- molar heat capacity at constant volume (288.45 K, 32894 kPa): 72.96 ± 1 J/K/mol
- molar heat capacity at constant volume (289.34 K, 33552 kPa): 73.33 ± 1 J/K/mol
- molar heat capacity at constant volume (289.52 K, 11964 kPa): 71.92 ± 1 J/K/mol
- molar heat capacity at constant volume (289.95 K, 12212 kPa): 72.29 ± 1 J/K/mol
- molar heat capacity at constant volume (292.2 K, 13671 kPa): 72.85 ± 1 J/K/mol
- molar heat capacity at constant volume (292.64 K, 13928 kPa): 73.17 ± 1 J/K/mol
- molar heat capacity at constant volume (294.88 K, 15364 kPa): 73.57 ± 1.1 J/K/mol
- molar heat capacity at constant volume (295.34 K, 15644 kPa): 73.82 ± 1.1 J/K/mol
- molar heat capacity at constant volume (297.56 K, 17055 kPa): 74.47 ± 1.1 J/K/mol
- molar heat capacity at constant volume (298.05 K, 17358 kPa): 74.2 ± 1.1 J/K/mol
- molar heat capacity at constant volume (300.26 K, 18750 kPa): 74.37 ± 1.1 J/K/mol
- molar heat capacity at constant volume (300.73 K, 2939 kPa): 74.37 ± 1.1 J/K/mol
- molar heat capacity at constant volume (300.76 K, 19068 kPa): 74.45 ± 1.1 J/K/mol
- molar heat capacity at constant volume (301.58 K, 3377 kPa): 74.41 ± 1.1 J/K/mol
- molar heat capacity at constant volume (301.67 K, 3419 kPa): 74.62 ± 1.1 J/K/mol
- molar heat capacity at constant volume (302.95 K, 20442 kPa): 74.16 ± 1.1 J/K/mol
- molar heat capacity at constant volume (303.48 K, 20773 kPa): 74.78 ± 1.1 J/K/mol
- molar heat capacity at constant volume (303.54 K, 4354 kPa): 74.77 ± 1.1 J/K/mol
- molar heat capacity at constant volume (304.37 K, 4801 kPa): 74.97 ± 1.1 J/K/mol
- molar heat capacity at constant volume (304.51 K, 4850 kPa): 74.76 ± 1.1 J/K/mol
- molar heat capacity at constant volume (305.65 K, 22131 kPa): 75.52 ± 1.1 J/K/mol
- molar heat capacity at constant volume (306.2 K, 22473 kPa): 75.56 ± 1.1 J/K/mol
- molar heat capacity at constant volume (306.36 K, 5801 kPa): 74.54 ± 1.1 J/K/mol
- molar heat capacity at constant volume (307.19 K, 6235 kPa): 74.97 ± 1.1 J/K/mol
- molar heat capacity at constant volume (307.35 K, 6310 kPa): 75.3 ± 1.1 J/K/mol
- molar heat capacity at constant volume (308.37 K, 23829 kPa): 76.01 ± 1.1 J/K/mol
- molar heat capacity at constant volume (308.94 K, 24172 kPa): 76.12 ± 1.1 J/K/mol
- molar heat capacity at constant volume (309.19 K, 7252 kPa): 75.53 ± 1.1 J/K/mol
- molar heat capacity at constant volume (310.01 K, 7669 kPa): 75.56 ± 1.1 J/K/mol
- molar heat capacity at constant volume (310.22 K, 7778 kPa): 75.78 ± 1.1 J/K/mol
- molar heat capacity at constant volume (311.08 K, 25517 kPa): 76.58 ± 1.1 J/K/mol
- molar heat capacity at constant volume (311.68 K, 25869 kPa): 76.11 ± 1.1 J/K/mol
- molar heat capacity at constant volume (312.04 K, 8706 kPa): 75.83 ± 1.1 J/K/mol
- molar heat capacity at constant volume (312.85 K, 9104 kPa): 76.02 ± 1.1 J/K/mol
- molar heat capacity at constant volume (313.1 K, 9241 kPa): 76.23 ± 1.1 J/K/mol
- molar heat capacity at constant volume (313.82 K, 27203 kPa): 77.38 ± 1.1 J/K/mol
- molar heat capacity at constant volume (314.43 K, 27556 kPa): 77.06 ± 1.1 J/K/mol
- molar heat capacity at constant volume (314.91 K, 10151 kPa): 75.71 ± 1.1 J/K/mol
- molar heat capacity at constant volume (315.69 K, 10543 kPa): 77.05 ± 1.1 J/K/mol
- molar heat capacity at constant volume (316 K, 10697 kPa): 76.49 ± 1.1 J/K/mol
- molar heat capacity at constant volume (316.58 K, 28887 kPa): 76.95 ± 1.1 J/K/mol
- molar heat capacity at constant volume (317.18 K, 29242 kPa): 77.79 ± 1.1 J/K/mol
- molar heat capacity at constant volume (317.79 K, 11598 kPa): 77.05 ± 1.1 J/K/mol
- molar heat capacity at constant volume (318.56 K, 11984 kPa): 77.31 ± 1.1 J/K/mol
- molar heat capacity at constant volume (318.91 K, 12158 kPa): 77.07 ± 1.1 J/K/mol
- molar heat capacity at constant volume (319.33 K, 30553 kPa): 77.02 ± 1.1 J/K/mol
- molar heat capacity at constant volume (319.67 K, 2142 kPa): 76.76 ± 1.1 J/K/mol
- molar heat capacity at constant volume (319.95 K, 30930 kPa): 77.48 ± 1.1 J/K/mol
- molar heat capacity at constant volume (320.71 K, 13058 kPa): 77.4 ± 1.1 J/K/mol
- molar heat capacity at constant volume (321.3 K, 2771 kPa): 77.58 ± 1.1 J/K/mol
- molar heat capacity at constant volume (321.43 K, 13428 kPa): 77.25 ± 1.1 J/K/mol
- molar heat capacity at constant volume (321.83 K, 13623 kPa): 76.95 ± 1.1 J/K/mol
- molar heat capacity at constant volume (322.1 K, 32227 kPa): 78.59 ± 1.1 J/K/mol
- molar heat capacity at constant volume (322.71 K, 3326 kPa): 77.29 ± 1.1 J/K/mol
- molar heat capacity at constant volume (322.73 K, 32614 kPa): 78 ± 1.1 J/K/mol
- molar heat capacity at constant volume (323.62 K, 14518 kPa): 78.11 ± 1.1 J/K/mol
- molar heat capacity at constant volume (324.31 K, 14874 kPa): 77.39 ± 1.1 J/K/mol
- molar heat capacity at constant volume (324.35 K, 3977 kPa): 78.06 ± 1.1 J/K/mol
- molar heat capacity at constant volume (324.77 K, 15094 kPa): 77.5 ± 1.1 J/K/mol
- molar heat capacity at constant volume (324.91 K, 33925 kPa): 78.84 ± 1.1 J/K/mol
- molar heat capacity at constant volume (325.78 K, 4543 kPa): 78.25 ± 1.1 J/K/mol
- molar heat capacity at constant volume (326.57 K, 15995 kPa): 78.02 ± 1.1 J/K/mol
- molar heat capacity at constant volume (327.22 K, 16325 kPa): 78.34 ± 1.1 J/K/mol
- molar heat capacity at constant volume (327.42 K, 5191 kPa): 78.96 ± 1.1 J/K/mol
- molar heat capacity at constant volume (327.73 K, 16576 kPa): 78.56 ± 1.1 J/K/mol
- molar heat capacity at constant volume (328.88 K, 5770 kPa): 78.35 ± 1.1 J/K/mol
- molar heat capacity at constant volume (329.52 K, 17472 kPa): 78.67 ± 1.1 J/K/mol
- molar heat capacity at constant volume (330.15 K, 17784 kPa): 78.59 ± 1.1 J/K/mol
- molar heat capacity at constant volume (330.51 K, 6416 kPa): 78.78 ± 1.1 J/K/mol
- molar heat capacity at constant volume (330.7 K, 18059 kPa): 79.38 ± 1.1 J/K/mol
- molar heat capacity at constant volume (331.99 K, 6999 kPa): 78.63 ± 1.1 J/K/mol
- molar heat capacity at constant volume (332.5 K, 18957 kPa): 79.25 ± 1.1 J/K/mol
- molar heat capacity at constant volume (333.09 K, 19244 kPa): 78.85 ± 1.1 J/K/mol
- molar heat capacity at constant volume (333.62 K, 7647 kPa): 78.71 ± 1.1 J/K/mol
- molar heat capacity at constant volume (333.68 K, 19542 kPa): 80.2 ± 1.1 J/K/mol
- molar heat capacity at constant volume (335.12 K, 8240 kPa): 79.2 ± 1.1 J/K/mol
- molar heat capacity at constant volume (335.5 K, 20439 kPa): 79.93 ± 1.1 J/K/mol
- molar heat capacity at constant volume (336.05 K, 20709 kPa): 79.2 ± 1.1 J/K/mol
- molar heat capacity at constant volume (336.7 K, 21027 kPa): 80.28 ± 1.1 J/K/mol
- molar heat capacity at constant volume (336.76 K, 8887 kPa): 79.06 ± 1.1 J/K/mol
- molar heat capacity at constant volume (338.28 K, 9489 kPa): 80.76 ± 1.1 J/K/mol
- molar heat capacity at constant volume (338.52 K, 21926 kPa): 80.26 ± 1.1 J/K/mol
- molar heat capacity at constant volume (339.05 K, 22184 kPa): 80.79 ± 1.1 J/K/mol
- molar heat capacity at constant volume (339.73 K, 22511 kPa): 80.76 ± 1.1 J/K/mol
- molar heat capacity at constant volume (339.92 K, 10135 kPa): 80.44 ± 1.1 J/K/mol
- molar heat capacity at constant volume (341.46 K, 10747 kPa): 81.71 ± 1.2 J/K/mol
- molar heat capacity at constant volume (341.56 K, 23408 kPa): 80.54 ± 1.1 J/K/mol
- molar heat capacity at constant volume (342.07 K, 23667 kPa): 81.31 ± 1.2 J/K/mol
- molar heat capacity at constant volume (342.79 K, 24013 kPa): 81.23 ± 1.1 J/K/mol
- molar heat capacity at constant volume (343.1 K, 11393 kPa): 80.84 ± 1.1 J/K/mol
- molar heat capacity at constant volume (344.62 K, 24907 kPa): 81.87 ± 1.2 J/K/mol
- molar heat capacity at constant volume (344.67 K, 12011 kPa): 81.35 ± 1.2 J/K/mol
